Patent US9573972B2, “Nurotoxic sterol glycosides” (priority 2008, dated 2017)
“Also recorded” adds a separate entry of the source.

Legend:
Format in all cases: in vivo, mouse
[1] = tested on: male CD-1 mice; experiment: Open field monitoring, SG-fed mice; settings: SG-fed vs control
Source text: (§1) Five-month old male CD-1 mice (30.1-35.7 g, 7.5 cm-8.8 cm) were purchased from Charles River (Wilmington, Mass.). Adult mice were chosen to mimic the mean age of onset of ALS-PDC (Kurland, L. T. (1988a) Trends Neurosci. 11, 51-4; Kurland, L. T., et al. (1994) Amyotrophic lateral sclerosis-parkinsonism-dementia complex on Guam: epidemiologic and etiological perspectives. 109-131). Thirty mice for the SG study were randomly divided into 2 groups (14 control and 16 experimental animals). All animals were housed singly in a virus-free barrier facility in a room maintained at 22° C. under a 12 hour light/dark cycle. The mice were provided ad libitum access to food and water.
(§2) The synthetic SG was mixed with finely ground Purina Chow mouse pellets (Mouse Diet™, Purina) to create the experimental pellets with a SG content of 1000 μg per pellet. Dry materials were blended with a sterile silicon spatula. For every 5 g of standard feed, 2.5 mL of doubly-distilled water (dd)H2O was added and the dough was kneaded and round up into pellets. A single sterol glucoside containing pellet was placed in the feeding tray each morning before the addition of regular mouse chow (ad libitum). All experimental pellets were entirely consumed by the mice each day. Control mice were fed standard mouse chow pellets of identical weight with no additives. SG feeding was conducted daily for 15 weeks and mice were behaviorally monitored until sacrifice at 35 weeks (time point 1) or 52 weeks (time point 2).
Open field monitoring: Spontaneous activity in an open field is considered one of the most standardized general measures of motor function (Crawley, 2000). The open field test can also reveal stress response in animals (i.e. defensive burying or thigmotaxis) (Karl et al., Exp Toxicol Pathol., 2003, 55(1):69-83). Open field testing of each animal was conducted every two weeks. A single mouse was placed in one of four round open field arena/tubs (approximately 1 m diameter) to permit the testing of four animals per 5 minute trial. […] This in turn, increases the likelihood of detection of fear-based behavior (Crawley, 2000) and minimizes habituation of the animal to the open field (Crawley, 2000). Testing arenas were cleaned with 70% ethanol before the testing of each animal and with quatricide at the end of each testing session. Movements were recorded using a video camera mounted on the ceiling. Video clips were reviewed and were manually scored or automatically analysed on an automated video tracking software (Ethovision® 3.1, Noldus Information Technologies Inc., Leesburg, Va., USA). Scoring was done on videotaped sessions, rather than in-person at the time of testing to avoid the introduction of confounding variables by the presence of an observer in close proximity to the mice (Crawley, 2000).

[2] = tested on: male CD-1 mice; experiment: Rotarod test, SG-fed mice; settings: SG-fed vs control, duration of study
Source text: as §1
as §2, with “Control mice were fed standard mouse chow pellets of identical weight with no additives.” left out, “2). […]” for “2).”

[3] = tested on: lipid deposits; experiment: Oil red O histochemistry of lipid deposits
Experimental: Tissue-mounted slides were processed to evaluate lipid distribution with light microscopy with a protocol adapted from Dr. Roy Ellis (IMVS Division of Pathology, The Queen Elizabeth Hospital, Woodville, South Australia). First, an oil red O stock solution was prepared 2 hours prior to execution of the histochemical procedures. The oil red O stock stain solution was made by mixing oil red O (0.5 g, Sigma-Aldrich, Oakville, ON, Canada) and isopropanol (100 mL, Fisher Scientific, Nepean, ON, Canada) over a 40° C. water bath. Immediately prior to beginning the oil red O histochemical procedures, the oil red O working solution was made by combining 20 mL of distilled water for every 30 mL of oil red O stock stain solution. […] Slide-mounted sections were rinsed in coplin jars for 15 minutes at RT in three changes of PBS. Sections were then rinsed at RT with 60% isopropanol for 5 minutes. The spinal cord sections were then stained with a freshly prepared working solution of oil red O for 20 minutes and then rinsed with 60% isopropanol. Nuclear counterstaining was achieved by staining the sections with haematoxylin (haematoxylin, 7211, Richard Allan Scientific, Kalamazoo, Mich., USA) for 1 minute. Finally, the sections were rinsed with distilled water, dried under a fume hood and cover-slipped with Entellen (Merck, Darmstadt, Germany).
The numbers of immunoreactive somata or inclusions were counted across the ventral horn of the spinal cord, across brain hemispheres, or per dorsal or ventral root with the 40× objective lens in a 600 μm/600 μm area within region perimeters defined by a mouse brain atlas (2001). For each animal, eight cross-sections per spinal cord or brain region were studied. An average of both the right and left ventral horn for each of the eight cross sections was generated giving a final averaged number for each animal in each of the spinal cord areas. For quantification of the level of mitochondrial activity (cytochrome c oxidase labelling) in the lumbar spinal cord or tyrosine hydroxylase immunoreactivity in the substantia nigra pars compacta and striatal sections, images captured using the Motic B5 Professional Series 3.0 microscope (Motic Instruments Inc., Richmond, ON) and analyzed using Motic B5 Professional, Motic Images Advanced 3.0 (Motic Instruments Inc., Richmond, ON) were scanned into a TIFF format file and analysed using the NIH Image J 1.37 software to measure density levels of antibody labelling. Eight to 12 sections from each mouse per region of interest were included.

CC[C@H](/C=C/[C@@H](C)[C@H]1CC[C@H]2[C@@H]3CC=C4C[C@@H](O[C@@H]5O[C@H](CO)[C@@H](O)[C@H](O)[C@H]5O)CC[C@]4(C)[C@H]3CC[C@]12C)C(C)C [SG, Stigmasterol β-D-Glucopyranoside]
Total distance moved ([1]; Time-point 1 (35 wk)): Total distance moved (ns)
Total distance to zone border ([1]; Time-point 1 (35 wk)): Total distance to zone border (ns)
Total turn angle ([1]; Time-point 1 (35 wk)): Total turn angle (ns)
Total distance to zone border ([1]; Time-point 2 (52 wk)): Total distance to zone border* (*p < 0.05)
Rotarod performance (time without fall) [2]: decrease in the time without fall; also recorded: trend of diminished performance
Lipid deposits DR over time ([3]; SG-fed over time (35 to 52 wk)): did not show time-dependent effects; also recorded: SG-fed DR over time: ns, p = 0.8062
Lipid deposits Lsc over time ([3]; SG-fed over time (35 to 52 wk)): did not experience an accumulation of deposits over time; also recorded: SG-fed Lsc over time: ns, p = 0.4864
Lipid deposits VR over time ([3]; SG-fed over time (35 to 52 wk)): did not show time-dependent effects; also recorded: SG-fed VR over time: ns, p = 0.5478
Lipids in dorsal roots ([3]; SG-fed vs control, 35 weeks): not significant
Lipids in ventral spinal roots, change ([3]; SG-fed vs control, 35 weeks): +10%
Lipids in dorsal root ([3]; SG-fed vs control, 52 weeks): statistically significant inter-group differences were not found
Lipids in ventral root ([3]; SG-fed vs control, 52 weeks): statistically significant inter-group differences were not found
Number and size of lipid deposits ([3]; lumbar spinal cord and ventral roots, SG-fed vs control): greater
